{"source": "patent US20230219898A1", "about": "“COMPOUNDS AND METHODS FOR BLOCKING APOPTOSIS AND INDUCING AUTOPHAGY” (President and Fellows of Harvard College, priority 2020, published 2023)", "key": {"[1]": {"test_system": "cleaved caspase-3 in Jurkat cells", "assay": "Cleaved caspase-3 immunoblot in Velcade-treated cells", "assay_type": "cell-based, human", "conditions": "FIG. 9a, 9b; Jurkat and SH-SY5Y cells, 10 μM, 12 h and 24 h", "method": "The levels of cleaved caspase-3 were determined by immunoblotting.\nSpecifically, wild-type MEF cells were pretreated for 1 h with 10 uM of the specified compounds, followed by 2 h treatment with 0.5 uM 5z-7-oxozeaenol and 1 ng/mL TNFα. Cell lysates were prepared and immunoblotted for cleaved-caspase 3 (CC3). Wild-type Jurkat cells were also pretreated for 1 h with 10 uM of the specified compounds, followed by 12 h treatment with 50 nM Velcade. Cell lysates were prepared and immunoblotted for cleaved-caspase 3 (CC3)."}, "[2]": {"test_system": "Beclin 1/Vps34 kinase complex", "assay": "Vps34 lipid kinase assay on Beclin 1/Vps34 complex from treated HEK293T cells", "assay_type": "cell-based", "conditions": "10 μM, 6 h", "method": "FIG. 6j Beclin 1/Vps34 kinase complex isolated from Flag-Beclin 1 transfected HEK293T cells treated with ICCB-19, Apt-1, or ICCB-19i (10 μM) for 6 h. PI3P kinase activity was measured by in vitro lipid kinase assay using ADP-Glo Kinase Assay Kit. Wortmannin (10 μM) was used as a control to inhibit Vps34 kinase activity. Mean±s.d. from technical quadruplicates (n=4), representative of 3 independent experiments. One-way ANOVA, post hoc Dunnett's tests. ***P=0.0003; ***P<0.001 (left to right).\nWT mice (n=10, male, 8 weeks of age) were injected intravenously via the tail vein with mTNFα (9.5 μg/mouse) after an intraperitoneal injection of Apt-1 (20 mg/kg) 30 min before. Control mice (n=9) received an equal amount of vehicle 30 min before mTNFα challenge. Kaplan Meier survival curve was determined. 25. Vps34 lipid kinase assay HEK293T cells were transfected with Flag-Beclin 1 for 18 h and then treated with ICCB-19, ICCB-19i, Apt-1 (10 μM) for another 6 h. Flag-Beclin 1 was immunoprecipitated by anti-Flag to isolate Beclin 1/Vps34 complex. Immunoprecipitated beads were added with sonicated phosphatidylinositol (1 μl of 5 mg) and ATP (1 μl of 10 mM) in 30 μl reaction buffer (40 mM Tris (pH 7.5), 20 mM MgCl2, 1 mg/ml BSA) for 30 min at room temperature. […] The conversion of ATP into ADP levels was measured by an ADP-Glo Kinase Assay Kit (Promega) according to the manufacturer's instructions."}, "GST-TRADD": {"molecular_target": "T1, GST-TRADD (Homo sapiens, UniProt Q15628)", "T1 construct": "cDNA encoding GST-tagged hTRADD (Full length or aa180-312); made in house; host or cells: HEK293T (pEBG plasmid)", "T1 sequence (Q15628 whole entry, the tested form may be a part)": "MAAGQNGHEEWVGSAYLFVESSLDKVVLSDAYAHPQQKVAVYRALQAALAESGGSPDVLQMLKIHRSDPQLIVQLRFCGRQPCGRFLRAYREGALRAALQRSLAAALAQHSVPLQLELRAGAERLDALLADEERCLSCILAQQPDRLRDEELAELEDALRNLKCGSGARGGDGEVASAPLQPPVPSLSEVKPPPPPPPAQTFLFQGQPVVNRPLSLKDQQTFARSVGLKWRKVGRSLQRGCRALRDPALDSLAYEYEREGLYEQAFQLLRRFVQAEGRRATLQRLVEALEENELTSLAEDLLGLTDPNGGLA", "assay": "Thermal shift assay with GST-TRADD", "assay_type": "binding", "conditions": "GST-TRADD 50 μM, compound 250 μM", "text": "Thermal unfolding of GST-TRADD is monitored using SYPRO Orange. Data were collected in the presence of ICCB-19 and Apt-1, leading to a rightward shift in the unfolding transition. The apparent melting temperature (Tm) is the peak in the derivative of the unfolding curve (dF/dT), which is used as an indicator of thermal stability.\nFull-length cDNAs for mouse/human TRADD were PCR-amplified from the plasmid library and cloned into pcDNA3.1 using Phanta Max Super-Fidelity DNA Polymerase (Vazyme Biotech Co., Ltd) with appropriate tags. Mutant hTRADD were generated using MutExpress II mutagenesis kit (Vazyme Biotech Co., Ltd). […]\nTo determine stability, purified proteins were made to a final concentration of 1 μg/l. […] The reaction was run from 25C, ramping up in increments of 0.05° C./s to a final temperature of 95C with fluorescence detection throughout the experiment to generate a dataset. Melting temperature of the protein (Tm) was determined by performing non-linear fitting of the dataset to a Boltzmann Sigmoidal curve in GraphPad Prism with the following equation: Y=Bottom+(Top-Bottom)/[1+exp(Tm-X/Slope)], where Y=fluorescence emission in arbitrary units; X=temperature; Bottom=baseline fluorescence at low temperature; Top=maximal fluorescence at top of the dataset; Slope=describes the steepness of the curve, with larger values denoting shallower curves."}}, "data": [{"smiles": "O=C(CSC1=NCCN1)NC1CCCCCC1", "note": "[ICCB-19]", "values": [{"measurement": "cleavage of caspase-3 downstream of Velcade-induced proteasomal stress", "setting": "[1]", "result": "blocked"}, {"measurement": "Vps34 lipid kinase activity", "setting": "[2]", "result": "increased Vps34 lipid kinase activity"}, {"measurement": "increase of Tm of GST-TRADD", "setting": "GST-TRADD", "result": 3.2, "unit": "°C"}]}, {"smiles": "CN1CCN=C1SC(C(=O)NC1CCCCCC1)c1ccccc1", "note": "(stereo not drawn) [Compound 30]", "values": [{"measurement": "cleavage of caspase-3 downstream of Velcade-induced proteasomal stress", "setting": "[1]", "result": "blocked"}, {"measurement": "Vps34 lipid kinase activity", "setting": "[2]", "result": "increased Vps34 lipid kinase activity"}, {"measurement": "increase of Tm of GST-TRADD", "setting": "GST-TRADD", "result": 3.7, "unit": "°C"}]}]}
